Test results published in paper PMC6691772, “Novel phthalimide based analogues: design, synthesis, biological evaluation, and molecular docking studies” (Journal of Enzyme Inhibition and Medicinal Chemistry, 2019).
Values after ≈ are worked out from the molar mass of the structure shown.

How the values were obtained:
S. pneumonia RCMB 010010 [1] = test: Agar well diffusion, inhibition zone; assay type: cell-based, Streptococcus pneumoniae; set-up: key to Mean diameter of inhibition zone (Mean ± SEM): –: -: No activity under the screening conditions; settings: mean of three values; for Mean diameter of inhibition zone (Mean ± SEM): 1 mg/mL
B. subtilis RCMB 010067 [2] = test: Agar well diffusion, inhibition zone; assay type: cell-based, Bacillus subtilis; set-up: key to Mean diameter of inhibition zone (Mean ± SEM): –: -: No activity under the screening conditions; settings: mean of three values; for Mean diameter of inhibition zone (Mean ± SEM): 1 mg/mL
[3] = test system: P. aeruginosa RCMB 010043; test: Agar well diffusion, inhibition zone; assay type: cell-based, Pseudomonas aeruginosa; set-up: key to Mean diameter of inhibition zone (Mean ± SEM): –: -: No activity under the screening conditions; settings: mean of three values; for Mean diameter of inhibition zone (Mean ± SEM): 1 mg/mL
E. coli RCMB 010052 [4] = test: Agar well diffusion, inhibition zone; assay type: cell-based, Escherichia coli; set-up: key to Mean diameter of inhibition zone (Mean ± SEM): –: -: No activity under the screening conditions; settings: mean of three values; for Mean diameter of inhibition zone (Mean ± SEM): 1 mg/mL
A. fumigatus RCMB 002568 [5] = test: Agar well diffusion, inhibition zone; assay type: cell-based, Aspergillus fumigatus; set-up: key to Mean diameter of inhibition zone (Mean ± SEM): –: -: No activity under the screening conditions; settings: mean of three values; for Mean diameter of inhibition zone (Mean ± SEM): 1 mg/mL
C. albicans RCMB 005036 = test: Agar well diffusion, inhibition zone; assay type: cell-based, Candida albicans; set-up: key: –: -: No activity under the screening conditions; settings: 1 mg/mL, mean of three values
[6] = test system: human liver cancer cell line (HepG-2); test: MTT anticancer assay; assay type: cell-based; settings: HepG2, HePG-2 cancer liver cell line, mean of three values, read-out: IC50 (Mean ± SEM)
[7] = test system: (THLE-2) normal liver cell line; test: Cytotoxic screening on normal liver cells; assay type: cell-based; settings: Homo sapiens, mean of three values, read-out: IC50 (Mean ± SEM)
[8] = test system: tested bacterial and fungal strains; test: Antimicrobial screening, summary over all tested strains; assay type: cell-based; settings: 1 mg/mL
Description: All bacterial and fungal strains were received from the culture collection of the Regional Center for Mycology and Biotechnology (RCMB), Al-Azhar University, Cairo, Egypt. All target derivatives were screened in-vitro opposite to various kinds of bacteria, Gram-positive bacteria (Streptococcus pneumoniae and Bacillus subtilis) and Gram-negative bacteria (Pseudomonas aeruginosa and Escherichia coli) and for their Antifungal activities against Aspergillus fumigatus and Candida albicans, respectively. Ampicillin and gentamycin were used as standard antibacterial drugs while amphotericin B was used as reference antifungal drug. The diameter of inhibition zone (mm) was measured for the biological activity using the diffusion technique. The promising compounds were further investigated to evaluate their antimicrobial activity expressed in terms of minimum inhibitory concentration (MIC) using the modified agar well diffusion method.
The newly prepared targets were subjected for in-vitro antibacterial screening against Gram-positive bacteria (Streptococcus pneumonia and Bacillus subtilis) and Gram-negative bacteria (Pseudomonas aeruginosa and Escherichia coli). […] The compounds’ solutions of concentrations (1 mg/mL) were evaluated against the different microorganism’s and the inhibition zone (IZ) used diameter in mm for the biologically activity (agar well diffusion method).

S. pneumonia RCMB 010010 [9] = test: Minimum inhibitory concentration, modified agar well diffusion; assay type: cell-based; settings: Streptococcus pneumoniae, RCMB010010, mean of three values, read-out: MIC (Mean ± SEM)
B. subtilis RCMB 010067 [10] = test: as above; assay type: cell-based; settings: Bacillus subtilis, RCMB010067, mean of three values, read-out: MIC (Mean ± SEM)
[11] = test system: P. aeruginosa RCMB 010043; test: as above; assay type: cell-based; settings: Pseudomonas aeruginosa, RCMB010043, mean of three values, read-out: MIC (Mean ± SEM)
E. coli RCMB 010052 [12] = test: as above; assay type: cell-based; settings: Escherichia coli, RCMB010052, mean of three values, read-out: MIC (Mean ± SEM)
A. fumigatus RCMB 002568 [13] = test: as above; assay type: cell-based; settings: Aspergillus fumigatus, RCMB002568, mean of three values, read-out: MIC (Mean ± SEM)
E. coli DNA gyrase B = E. coli DNA gyrase B (Escherichia coli, UniProt P0AES6); test: In-vitro enzyme assay on DNA gyrase B; assay type: biochemical
VEGFR-2 = VEGFR-2 (Homo sapiens, UniProt P35968); test: In-vitro enzyme assay on VEGFR-2; assay type: biochemical; settings: read-out: IC50 (Mean ± SEM)
Chain of VEGFR-2 (P35968 20-1356): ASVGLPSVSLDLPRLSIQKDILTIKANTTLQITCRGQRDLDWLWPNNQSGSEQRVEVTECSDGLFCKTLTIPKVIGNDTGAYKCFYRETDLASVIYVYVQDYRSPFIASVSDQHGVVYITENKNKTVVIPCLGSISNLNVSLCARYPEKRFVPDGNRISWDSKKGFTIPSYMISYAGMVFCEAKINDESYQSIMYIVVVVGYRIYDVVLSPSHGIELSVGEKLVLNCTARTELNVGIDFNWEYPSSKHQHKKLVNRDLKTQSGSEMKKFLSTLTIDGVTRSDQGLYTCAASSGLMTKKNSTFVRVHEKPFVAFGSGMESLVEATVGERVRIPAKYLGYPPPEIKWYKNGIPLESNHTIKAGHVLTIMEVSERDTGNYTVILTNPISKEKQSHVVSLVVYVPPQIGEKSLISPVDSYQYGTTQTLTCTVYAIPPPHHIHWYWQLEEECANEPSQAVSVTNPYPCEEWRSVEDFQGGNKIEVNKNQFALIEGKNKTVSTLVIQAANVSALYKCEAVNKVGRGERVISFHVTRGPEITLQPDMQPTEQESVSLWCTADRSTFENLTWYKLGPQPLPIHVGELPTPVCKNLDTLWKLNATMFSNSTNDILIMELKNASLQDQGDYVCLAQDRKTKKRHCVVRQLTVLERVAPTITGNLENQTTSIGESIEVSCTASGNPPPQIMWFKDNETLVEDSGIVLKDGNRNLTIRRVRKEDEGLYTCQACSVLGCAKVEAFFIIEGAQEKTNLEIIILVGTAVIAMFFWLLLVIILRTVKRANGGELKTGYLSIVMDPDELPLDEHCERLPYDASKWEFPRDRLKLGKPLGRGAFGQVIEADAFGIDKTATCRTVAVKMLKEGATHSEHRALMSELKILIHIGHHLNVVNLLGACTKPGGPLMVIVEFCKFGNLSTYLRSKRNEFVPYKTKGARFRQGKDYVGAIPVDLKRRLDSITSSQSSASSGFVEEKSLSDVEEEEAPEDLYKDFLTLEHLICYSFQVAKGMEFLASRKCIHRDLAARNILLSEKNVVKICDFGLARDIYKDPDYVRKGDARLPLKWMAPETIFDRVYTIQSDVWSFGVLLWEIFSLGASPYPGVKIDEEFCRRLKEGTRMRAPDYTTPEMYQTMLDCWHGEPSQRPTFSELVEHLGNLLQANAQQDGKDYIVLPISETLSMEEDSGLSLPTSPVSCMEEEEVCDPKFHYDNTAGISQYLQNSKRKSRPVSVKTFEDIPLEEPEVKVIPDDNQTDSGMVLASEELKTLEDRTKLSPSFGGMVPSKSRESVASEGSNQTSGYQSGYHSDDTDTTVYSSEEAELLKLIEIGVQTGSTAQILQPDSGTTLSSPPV

| SMILES | Mean diameter of inhibition zone (Mean ± SEM) (S. pneumonia RCMB 010010 [1]) | Mean diameter of inhibition zone (Mean ± SEM) (B. subtilis RCMB 010067 [2]) | Mean diameter of inhibition zone (Mean ± SEM) [3] | Mean diameter of inhibition zone (Mean ± SEM) (E. coli RCMB 010052 [4]) | Mean diameter of inhibition zone (Mean ± SEM) (A. fumigatus RCMB 002568 [5]) | Mean diameter of inhibition zone (Mean ± SEM) (C. albicans RCMB 005036) | IC50 [6] | IC50 [7] | antimicrobial activity, overall [8] | melting point | also measured |
| --- | --- | --- | --- | --- | --- | --- | --- | --- | --- | --- | --- |
| O=C1Cn2nc(O)c(N=NN3C(=O)c4ccccc4C3=O)c2N1 [Compound 5, 2-((6-Hydroxy-2-oxo-2,3-dihydro-1H-imidazo[1,2-b]pyrazol-7-yl)diazenyl)-isoindoline-1,3-dione] | – | – | – | – | – | – | 31.8 ± 1.56 µg/mL (≈ 102 µM) | 597.83 ± 0.14 µg/mL (≈ 1910 µM) | no antimicrobial activities | 157 to 158 °C |  |
| Nc1c(C(=O)c2ccccc2)cnc2c(N=NN3C(=O)c4ccccc4C3=O)c(O)nn12 [Compound 14, 2-[(7-Amino-6-benzoyl-2-hydroxypyrazolo[1,5-a]pyrimidin-3-yl)diazenyl]-1H-isoindole-1,3(2H)-dione] | – | – | – | – | – | – | 34.8 ± 1.26 µg/mL (≈ 81.4 µM) | 725.44 ± 0.15 µg/mL (≈ 1700 µM) | no antimicrobial activities | 295 to 297 °C |  |
| NC1=NNC(=O)C1=NNN1C(=O)c2ccccc2C1=O [Compound 4, 2-(2-(3-Amino-5-oxo-1H-pyrazol-4(5H)-ylidene)hydrazinyl)isoindoline-1,3-dione] |  |  |  |  |  | – | 4.22 ± 1.04 µg/mL (≈ 15.5 µM) | 874.31 ± 0.22 µg/mL (≈ 3210 µM) |  | 289 to 290 °C | zone of inhibition at 1000 µg/mL (S. pneumonia RCMB 010010 [1]; Streptococcus pneumoniae, RCMB010010, 1 mg/mL, read-out: Mean diameter of inhibition zone (Mean ± SEM)): 23 ± 0.4 mm; zone of inhibition at 1000 µg/mL (B. subtilis RCMB 010067 [2]; Bacillus subtilis, RCMB010067, 1 mg/mL, read-out: Mean diameter of inhibition zone (Mean ± SEM)): 25.1 ± 0.5 mm; zone of inhibition at 1000 µg/mL ([3]; Pseudomonas aeruginosa, RCMB010043, 1 mg/mL, read-out: Mean diameter of inhibition zone (Mean ± SEM)): 19.2 ± 0.5 mm; zone of inhibition at 1000 µg/mL (E. coli RCMB 010052 [4]; Escherichia coli, RCMB010052, 1 mg/mL, read-out: Mean diameter of inhibition zone (Mean ± SEM)): 24.5 ± 0.3 mm; zone of inhibition at 1000 µg/mL (A. fumigatus RCMB 002568 [5]; Aspergillus fumigatus, RCMB002568, 1 mg/mL, read-out: Mean diameter of inhibition zone (Mean ± SEM)): 23.1 ± 0.5 mm; MIC (S. pneumonia RCMB 010010 [9]): 1.95 ± 0.23 µg/mL (≈ 7.16 µM); MIC (B. subtilis RCMB 010067 [10]): 0.98 ± 0.42 µg/mL (≈ 3.6 µM); MIC [11]: 0.98 ± 0.02 µg/mL (≈ 3.6 µM); MIC (E. coli RCMB 010052 [12]): 0.49 ± 0.39 µg/mL (≈ 1.8 µM); MIC (A. fumigatus RCMB 002568 [13]): 1.95 ± 0.28 µg/mL (≈ 7.16 µM); IC50 (E. coli DNA gyrase B): 340 ± 630 nM; IC50 (VEGFR-2): 90 nM |
